For data set [1], the system named is cholinesterase (ChE) in liver homogenate. Description: Substrate hydrolysis, liver homogenate ChE. As to conditions: 1 mM AcTChI, BuTChI, 2 mM PrTChI. The data set is classed as biochemical, Japanese quail (Coturnix coturnix japonica).
Protocol: (§1) To obtain plasma, 1 mL blood samples were added to anticoagulant (heparin, 3.7 mg, final concentration 0.1%) in 5 mL centrifuge tubes. Plasma was separated by centrifugation at 5000 g for 10 min. The liver was removed using a scalpel, cut into small pieces (2-3 mm^3), and rinsed until the blood was fully removed. The liver was then placed on ice in 5 mL tubes (5 mm internal diameter) and homogenized using a mechanically driven homogenizer with phosphate buffer (0.1 M, pH 8) with a 1 : 10 ratio (w/v) of 1 part of liver tissue to 9 parts of buffer and a speed of 10000 rpm. Homogenisation required 3 min; after every one min or so of homogenization, the mixture was rested for 30 s to allow cooling. The homogenate was then centrifuged at 5000 g for 10 min and the supernatant fraction was retained and used for subsequent analyses.
(§2) Enzyme activity was determined at room temperature 25°C by the Ellman method [18], and using thioacetate (PSA) for measuring CbE enzyme activity or by using thiocholine (e.g., AcTChI, BuTChI, or PrTChI substrate) for measuring ChE enzyme activities [19]. […] Enzyme activities were calculated using an extinction coefficient of 13.6 mM^−1 cm^−1 for TNB [21] and are expressed as units (1 U ≡ 1 μmol ≡ 1000 nmol of substrate hydrolysed per min) per g wet weight of liver homogenate, while for plasma they are expressed as U/mL [2]. […]
Data set [2] deals with T1, cholinesterase (ChE) in blood plasma (Coturnix japonica, UniProt A0A8C2YFF6). Description: Substrate hydrolysis and kinetics, blood plasma ChE. The format is biochemical, Japanese quail (Coturnix coturnix japonica). The following applies: for reaction rate of substrate hydrolysis, plasma: blood plasma, 1 mM AcTChI, BuTChI, 2 mM PrTChI.
Protocol: as §1
(§3) Enzyme activity was determined at room temperature 25°C by the Ellman method [18], and using thioacetate (PSA) for measuring CbE enzyme activity or by using thiocholine (e.g., AcTChI, BuTChI, or PrTChI substrate) for measuring ChE enzyme activities [19]. […] Substrate solutions (final concentration 2 mM for PrTChI and PSA, while 1 mM for AcTChI and BuTChI) were prepared and used on the same day and kept on ice during use. Enzyme activities were calculated using an extinction coefficient of 13.6 mM^−1 cm^−1 for TNB [21] and are expressed as units (1 U ≡ 1 μmol ≡ 1000 nmol of substrate hydrolysed per min) per g wet weight of liver homogenate, while for plasma they are expressed as U/mL [2]. All measurements in this paper were carried out in duplicate.
Data set [3] deals with carboxylesterase (CbE) in blood plasma. Description: In vitro inhibition of blood plasma CbE by CB/OP pesticides (Ellman, PSA substrate). The data set is classed as biochemical, Japanese quail (Coturnix coturnix japonica). The following applies: for IC50: substrate PSA, 30 min 25°C, mean ± SE, read-out: Half maximal inhibitory concentration (IC50), PSA. A general note: DTNB colorimetry detects thiols as they appear.
Protocol: To obtain plasma, 1 mL blood samples were added to anticoagulant (heparin, 3.7 mg, final concentration 0.1%) in 5 mL centrifuge tubes. Plasma was separated by centrifugation at 5000 g for 10 min.
as §3
Then esterases enzyme activity was measured as explained in the above section. For the measurement of half maximal inhibitory concentrations (IC50), samples were inhibited for 30 min at room temperature 25°C with appropriate concentration of CB or OP pesticide compounds, depending on preliminary range finding tests. Controls that were incubated with phosphate buffer pH 8.0 were included. Then the enzyme activity was determined as described above. Then the data were fitted with nonlinear regression analysis using a single exponential decay by SigmaPlot 11 (Systat software, Inc.).

Data set [4] relates to carboxylesterase (CbE) in blood plasma. Description: Inhibition rate constant (ki), blood plasma CbE (PSA substrate). The data set is classed as biochemical, Japanese quail (Coturnix coturnix japonica). As to conditions: 4 mM methomyl, 2 mM parathion, malathion, trichlorfon, 1–60 min, 25°C, mean ± SE. As to the method: Blanks were also run at each selected inhibitor for each based on the absorbance tested. Then the enzyme activity was determined as described in above. The decrease in esterases enzyme activity over different times (1–60 min) at room temperature 25°C was detected. Then the data of inhibition time courses at different times after inhibition was fitted with a single exponential decay using SigmaPlot 11. However, the percentage inhibition was calculated from the ratio between the activity of an exposed sample and unexposed controls by the following formula: (1) % Inhibition =[…].

For another data set, the system named is quails. The following applies: cited from earlier work.
Data set [5] addresses T1, cholinesterase (ChE) in blood plasma. Description: Inhibition rate constant (ki), blood plasma ChE (thiocholine substrates). The following applies: for ki value, range: blood plasma, range over the substrates AcTChI, BuTChI, PrTChI and PSA.
Protocol: as §3
Controls that were incubated with phosphate buffer pH 8.0 were included when appropriated. Blanks were also run at each selected inhibitor for each based on the absorbance tested. Then the enzyme activity was determined as described in above. The decrease in esterases enzyme activity over different times (1–60 min) at room temperature 25°C was detected. Then the data of inhibition time courses at different times after inhibition was fitted with a single exponential decay using SigmaPlot 11. However, the percentage inhibition was calculated from the ratio between the activity of an exposed sample and unexposed controls by the following formula: (1) % Inhibition =Esterases enzyme activity with inhibitor/Esterases enzyme activity without inhibitor×100.
Data set [6] relates to carboxylesterase (CbE) in blood plasma. Nature of the data set: Substrate hydrolysis, blood plasma CbE (PSA). The format is biochemical, Japanese quail (Coturnix coturnix japonica). As to conditions: 2 mM PSA.
Protocol: as §1, §2
Data set [7] deals with carboxylesterase (CbE) in liver homogenate. Description: Substrate hydrolysis and kinetics, liver homogenate CbE (PSA). The format is biochemical, Japanese quail (Coturnix coturnix japonica).
Protocol: as §1, §3
The target of data set [8] is T1, cholinesterase (ChE) in blood plasma. Nature of the data set: In vivo oral exposure 48 h, plasma ChE inhibition. Details: species or system Japanese quail (Coturnix coturnix japonica). As to the method: The extent of inhibition of esterases enzyme activity was also assessed following in vivo exposure of test of quail by oral dosing (n = 15) were exposed to test solutions of parathion, malathion, methomyl, trichlorfon, or control (water) in cages. […] Samples were prepared and assayed as explained in the above section.

Another data set deals with ChE enzyme. Nature of the data set: Incubation with general serine esterase inhibitor, ChE activity. The following applies: 3 mM inhibitor. The data set is classed as biochemical, Japanese quail (Coturnix coturnix japonica).
A further data set concerns CbE enzyme. Description: Incubation with general serine esterase inhibitor, CbE activity. The data set is classed as biochemical, Japanese quail (Coturnix coturnix japonica). The following applies: 3 mM inhibitor.
Setting [9] is: read-out: inhibition of control activity.

We go through eight compounds from paper PMC3913017, “A Method for Fast Assessment of OP/CB Exposure in the Japanese Quail (Coturnix coturnix japonica) Using Combined Esterases Enzyme Activity as Biomarkers” (Enzyme Research, 2014).

As usually defined, the Vmax is the rate approached at saturating substrate. The Km is the substrate concentration at which the rate is half of its maximum. In general, inhibition refers to the share of the control response that was lost under treatment.

Where two headings read alike, the source gives them in different places.

T1 sequence (A0A8C2YFF6 30-604): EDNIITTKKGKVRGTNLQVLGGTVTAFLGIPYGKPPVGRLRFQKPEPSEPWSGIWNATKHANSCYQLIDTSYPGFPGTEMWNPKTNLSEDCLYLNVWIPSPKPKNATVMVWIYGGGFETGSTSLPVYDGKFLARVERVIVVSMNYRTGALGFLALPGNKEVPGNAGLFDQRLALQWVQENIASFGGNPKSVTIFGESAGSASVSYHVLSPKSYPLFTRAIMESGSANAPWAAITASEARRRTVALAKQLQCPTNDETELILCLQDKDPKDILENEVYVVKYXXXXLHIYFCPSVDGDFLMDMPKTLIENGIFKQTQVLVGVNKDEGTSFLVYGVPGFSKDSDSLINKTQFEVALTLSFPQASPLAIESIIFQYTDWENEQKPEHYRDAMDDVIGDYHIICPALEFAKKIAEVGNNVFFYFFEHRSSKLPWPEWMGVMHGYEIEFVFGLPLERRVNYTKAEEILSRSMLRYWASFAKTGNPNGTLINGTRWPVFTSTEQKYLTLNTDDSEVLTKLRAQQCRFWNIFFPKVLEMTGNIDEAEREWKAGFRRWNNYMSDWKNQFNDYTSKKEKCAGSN

For the compound `CCCC(=O)SCC[N+](C)(C)C.[I-]` [BuTChI, (2-mercaptoethyl) trimethylammonium iodide butyrate], the “reaction rate of substrate hydrolysis, liver homogenate” value (“reaction rate … liver homogenate” for short) in data set [1] is 304.5 nmol/min/g. Further, in data set [2] (blood plasma ChE, Figure 4(a)), the Vmax was found to be 1011 nmol/min/mL. Also, in data set [2] (blood plasma ChE, substrate 0.125–2 mM, read-out: Km (apparent Michaelis constant)), the Km came to 394 µM. For the same compound, the “reaction rate of substrate hydrolysis, plasma” value (shortened to “reaction rate … plasma”) in data set [2] turned out to be 1321.5 nmol/min/mL.
Consider `CCOC(=O)CC(SP(=S)(OC)OC)C(=O)OCC` (stereo not shown) [Malathion, S-1,2-bis(ethoxycarbonyl) ethyl O,O-dimethyl phosphorodithioate], for which the IC50 in [3] is 910 ± 400 µM. Further, the “Rate constant inhibition (ki), PSA” value in [4] is listed as 175.6 ± 16.0 × 10^−3 min^−1. The “median lethal dose (LD50)” value in the data set with quails (oral, quails) is listed as 400 mg/kg. Moreover, in data set [5], the “ki value, range” value lay within 0.0358 to 0.1756 min⁻¹. In addition, the inhibition at 2000 µM in data set [5] (setting [9]) lay within 83 to 99%.
On to `CNC(=O)ON=C(C)SC` [Methomyl, S-methyl-N((methylcarbamoyl)oxy) thioacetimidate], for which the “CbE enzyme activity sensitivity to inhibition” value in [3] (in vitro, PSA, Figure 10(a)) is recorded as “insensitive to the CB methomyl except at high concentrations”. The IC50 in [3] stood at 610 ± 20 µM. Moreover, in [4], the “Rate constant inhibition (ki), PSA” value was 345.3 ± 12.4 × 10^−3 min^−1. Besides, in the data set on quails (in vivo, po), the “median lethal dose (LD50)” value was 24.2 mg/kg. Also, in data set [5], the “ki value, range” value was in the range of 0.1224 to 0.5674 min⁻¹. Besides, the inhibition at 4000 µM in [5] (setting [9]) lay in the range of 83 to 99%.
For `CC(=O)Sc1ccccc1` [PSA, thiophenyl acetate], the “reaction rate … plasma” value in [6] turned out to be 68.9 nmol/min/mL. For the same compound, the Vmax in data set [7] (liver CbE, Figure 4(b)) was determined as 1195 nmol/min/g. Further, in [7] (liver CbE, substrate 0.25–4 mM, read-out: apparent Km), the Km was 713 µM. Moreover, the “reaction rate … liver homogenate” value in data set [7] (liver homogenate, 2 mM PSA) came out at 1.765 µmol/min/g.
Take `CCOP(=S)(OCC)Oc1ccc([N+](=O)[O-])cc1` [Parathion, O,O-diethyl O-(4-nitrophenyl) phosphorothioate]: the IC50 in data set [3] was 220 ± 60 µM. In addition, in [4], the “Rate constant inhibition (ki), PSA” value is 453.2 ± 5.6 × 10^−3 min^−1. For the same compound, the “median lethal dose (LD50)” value in the data set on quails (oral, quails) is on record as 6 mg/kg. For the same compound, the “ki value, range” value in [5] was in the range of 0.4532 to 0.8233 min⁻¹.
On to `CCC(=O)SCC[N+](C)(C)C.[I-]` [PrTChI, (2-mercaptoethyl) trimethylammonium iodide propionate], for which the “reaction rate … liver homogenate” value in [1] is 113.9 nmol/min/g. Moreover, the “reaction rate … plasma” value in data set [2] worked out at 211.9 nmol/min/mL.
Consider `COP(=O)(OC)C(O)C(Cl)(Cl)Cl` (stereo not shown) [Trichlorfon, dimethyl (2,2,2-trichloro-1-hydroxyethyl) phosphonate], for which, in data set [3], the IC50 was determined as 510 ± 90 µM. In addition, the “Rate constant inhibition (ki), PSA” value in data set [4] is recorded as 976.9 ± 8.9 × 10^−3 min^−1. The “median lethal dose (LD50)” value in the data set with quails (oral, quails) was 22 mg/kg. Moreover, in data set [5], the “ki value, range” value is 0.3451 to 0.9769 min⁻¹. Besides, the inhibition at 11 mg/kg in [8] (read-out: % inhibition compared with the control, plasma, AcTChI) was 12.1%; in data set [8] (read-out: % inhibition compared with the control, plasma, BuTChI) it was 33.2%; in data set [8] (read-out: % inhibition compared with the control, plasma, PrTChI) it was 11.7%.
Consider `O=S(=O)(F)Cc1ccccc1` [phenylmethanesulfonyl fluoride], for which the “level of ChE enzyme activity after incubation” value with ChE enzyme was “insignificant levels”. In addition, the “level of CbE enzyme activity after incubation” value in the data set on CbE enzyme is “insignificant levels”.
